Laboratory results reported in patent publication US20260070945A1, “MACROCYCLIC IMMUNOMODULATORS” (Bristol-Myers Squibb Company, priority 2022, published 2026).
*1 amine or outer side, *2 acyl side, *3 side chain or, on linkers, in order; H or OH if unused. Where a SMILES comes first, the peptide text is derived from it. Bridges are numbered along the chain shown (N, C = ends). [ ]: non-standard residue; d: D form. The star is where a group is joined. ξ: configuration not given here. Phe(4-CF3) = N[C@@H](Cc1ccc(C(F)(F)F)cc1)C(=O)O; Phe(4-COOH) = N[C@@H](Cc1ccc(C(=O)O)cc1)C(=O)O; Bip = N[C@@H](Cc1ccc(-c2ccccc2)cc1)C(=O)O; Phe(3-Me) = Cc1cccc(C[C@H](N)C(=O)O)c1; γGlu = O=C(O)[C@H](CCC(=O)[*:2])N[*:1]; NH(CH2)12COOH = O=C(O)CCCCCCCCCCCCN*; Val(3-OH) = CC(C)(O)[C@H](N)C(=O)O; aIle = CC[C@@H](C)[C@H](N)C(=O)O; hArg = N=C(N)NCCCC[C@H](N)C(=O)O; 4Pal = N[C@@H](Cc1ccncc1)C(=O)O; Cha = N[C@@H](CC1CCCCC1)C(=O)O; Ile(3ξ) = CCC(C)[C@H](N)C(=O)O; Thr(3ξ) = CC(O)[C@H](N)C(=O)O; hSer = N[C@@H](CCO)C(=O)O; Carboxymethyl = O=C(O)C*; NMeA = CN[C@@H](C)C(=O)O; Orn = NCCC[C@H](N)C(=O)O; dDap = NC[C@@H](N)C(=O)O; Aun = NCCCCCCCCCCC(=O)O; Dab = NCC[C@H](N)C(=O)O; Nva = CCC[C@H](N)C(=O)O; Dap = NC[C@H](N)C(=O)O; AEEA = NCCOCCOCC(=O)O

Target: T1, PD-1/PD-L1 interaction (PE-labeled human PD-L1-Ig binding to Jurkat cell line over-expressing human PD-1) (Homo sapiens, UniProt Q15116)
T1 construct: expressed in transfected cells; host or cells: Jurkat
T1 sequence (Q15116 25-288): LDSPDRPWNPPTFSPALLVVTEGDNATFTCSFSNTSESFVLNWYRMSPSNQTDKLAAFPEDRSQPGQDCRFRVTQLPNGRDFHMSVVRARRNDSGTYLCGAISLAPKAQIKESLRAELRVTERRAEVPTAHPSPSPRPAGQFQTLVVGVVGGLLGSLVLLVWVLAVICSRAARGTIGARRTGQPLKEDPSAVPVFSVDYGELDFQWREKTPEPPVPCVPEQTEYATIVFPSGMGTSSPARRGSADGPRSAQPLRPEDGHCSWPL
Assay: Jurkat-PD-1 Cell Binding High-Content Screening Assay (CBA)
Settings: Jurkat-hPD-1 cells, PE-labeled PD-L1-Ig 20 nM final; read-out: Jurkat HPD1 PDL1 IC50
In short: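 Cells 8×10^3/well, DMEM + 10% FCS; cpd 2 h, 37 °C; PE–PD-L1-Ig 20 nM final, 1 h; PFA fix + Hoechst 33342, 3× dPBS wash; high-content imager.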

Compound | IC50 [nM]
CC[C@@H](C)[C@@H]1NC(=O)[C@H](Cc2ccc(-c3ccccc3)cc2)NC(=O)[C@H](C(C)C)NC(=O)[C@H](Cc2c[nH]c3ccccc23)NC(=O)[C@H](CC(=O)O)NC(=O)[C@H](Cc2ccc(OCC(=O)O)cc2)NC(=O)[C@H](Cc2ccncc2)NC(=O)CSC[C@@H](C(=O)N[C@H](CN)C(=O)NCCOCCOCC(=O)N[C@@H](CCC(=O)NCCOCCOCC(=O)N[C@@H](CCC(=O)NCCOCCOCC(=O)N[C@@H](CCCN)C(=O)NCCCCCCCCCCC(=O)O)C(=O)O)C(=O)O)NC(=O)[C@H](CO)NC(=O)[C@H](C(C)C)NC(=O)[C@H](CC2CCCCC2)NC(=O)[C@H](CC(N)=O)NC(=O)[C@@H](CC(C)C)NC(=O)[C@H](C)N(C)C1=O [Example 2014] ({CH2CO}-[4Pal]Y(Carboxymethyl)DWV[Bip][aIle][NMeA][dL]N[Cha]VSC[dDap][AEEA][γGlu][AEEA][γGlu][AEEA][Orn][Aun]-OH; thioether N-14) | 42.7
CC(C)C[C@@H]1NC(=O)[C@H](Cc2c[nH]c3ccccc23)NC(=O)[C@H](CC(=O)O)NC(=O)[C@H](Cc2ccc(OCC(=O)O)cc2)NC(=O)[C@H](CCCCNC(=N)N)NC(=O)CSC[C@@H](C(=O)NCC(=O)N[C@@H](CCN)C(=O)NCCCCCCCCCCC(=O)O)NC(=O)[C@H](CO)NC(=O)[C@H](C(C)C)NC(=O)[C@H](CC2CCCCC2)NC(=O)[C@H](CCN)NC(=O)[C@@H](CC(C)C)NC(=O)[C@H](C)N(C)C(=O)[C@H](C(C)C)NC(=O)[C@H](Cc2ccc(-c3ccccc3)cc2)NC1=O [Example 2120] ({CH2CO}-[hArg]Y(Carboxymethyl)DWL[Bip]V[NMeA][dL][Dab][Cha]VSCG[Dab][Aun]-OH; thioether N-14) | 17.6
CC(C)C[C@@H]1NC(=O)[C@H](Cc2c[nH]c3ccccc23)NC(=O)[C@H](CC(=O)O)NC(=O)[C@H](Cc2ccc(C(=O)O)cc2)NC(=O)[C@H](Cc2ccc(OCC(=O)O)cc2)NC(=O)CSC[C@@H](C(=O)NCC(=O)N[C@@H](CCN)C(=O)NCCCCCCCCCCC(=O)O)NC(=O)[C@H](CO)NC(=O)[C@H](C(C)C)NC(=O)[C@H](CC2CCCCC2)NC(=O)[C@H](CCN)NC(=O)[C@H](CC(C)C)NC(=O)[C@H](C)N(C)C(=O)[C@H](C(C)C)NC(=O)[C@H](Cc2ccc(-c3ccccc3)cc2)NC1=O [Example 1037] ({CH2CO}-Y(Carboxymethyl)[Phe(4-COOH)]DWL[Bip]V[NMeA]L[Dab][Cha]VSCG[Dab][Aun]-OH; thioether N-14) | 13.6
CC(C)C[C@H]1NC(=O)[C@H](C)N(C)C(=O)[C@H](Cc2ccc(OCC(=O)O)cc2)NC(=O)[C@H](Cc2ccc(-c3ccccc3)cc2)NC(=O)[C@H](Cc2ccc(OCC(=O)O)cc2)NC(=O)[C@H](Cc2c[nH]c3ccccc23)NC(=O)[C@H](CC(=O)O)NC(=O)[C@H](Cc2ccc(OCC(=O)O)cc2)NC(=O)[C@H]([C@@H](C)O)NC(=O)CSC[C@@H](C(=O)N[C@@H](CCCN)C(=O)NCCOCCOCC(=O)NCCCCCCCCCCC(=O)O)NC(=O)[C@H](CO)NC(=O)[C@H](C(C)C)NC(=O)[C@H](CC2CCCCC2)NC(=O)[C@H](CCN)NC1=O [Example 1395] ({CH2CO}-TY(Carboxymethyl)DWY(Carboxymethyl)[Bip]Y(Carboxymethyl)[NMeA][dL][Dab][Cha]VSC[Orn][AEEA][Aun]-OH; thioether N-14) | 56.5
Cc1cccc(C[C@@H]2NC(=O)[C@H](CC(=O)O)NC(=O)[C@H](Cc3ccc(OCC(=O)O)cc3)NC(=O)[C@H](C(C)O)NC(=O)CSC[C@@H](C(=O)N[C@@H](CCN)C(=O)NCCCCCCCCCCC(=O)O)NC(=O)[C@H](CCO)NC(=O)[C@H](C(C)C)NC(=O)[C@H](CC3CCCCC3)NC(=O)[C@H](CCN)NC(=O)[C@@H](CC(C)C)NC(=O)[C@H](C)N(C)C(=O)[C@H](Cc3ccc(OCC(=O)O)cc3)NC(=O)[C@H](Cc3ccc(-c4ccccc4)cc3)NC(=O)[C@H](Cc3ccc(C(=O)O)cc3)NC2=O)c1 (stereo partly drawn) [Example 2352] ({CH2CO}-[Thr(3ξ)]Y(Carboxymethyl)D[Phe(3-Me)][Phe(4-COOH)][Bip]Y(Carboxymethyl)[NMeA][dL][Dab][Cha]V[hSer]C[Dab][Aun]-OH; thioether N-14) | 14.5
Cc1cccc(C[C@@H]2NC(=O)[C@H](CC(=O)O)NC(=O)[C@H](Cc3ccc(OCC(=O)O)cc3)NC(=O)[C@H](CN)NC(=O)CSC[C@@H](C(=O)N[C@@H](CCN)C(=O)NCCCCCCCCCCC(=O)O)NC(=O)[C@H](CO)NC(=O)[C@H](C(C)C)NC(=O)[C@H](CC3CCCCC3)NC(=O)[C@H](CCN)NC(=O)[C@@H](CC(C)C)NC(=O)[C@H](C)N(C)C(=O)[C@H](Cc3ccc(OCC(=O)O)cc3)NC(=O)[C@H](Cc3ccc(-c4ccccc4)cc3)NC(=O)[C@H](C(C)C)NC2=O)c1 [Example 1261] ({CH2CO}-[Dap]Y(Carboxymethyl)D[Phe(3-Me)]V[Bip]Y(Carboxymethyl)[NMeA][dL][Dab][Cha]VSC[Dab][Aun]-OH; thioether N-14) | 16.6

Same assay, conditions: PE-labeled PD-L1-Ig 20 nM final, Jurkat-hPD-1 cells; read-out: Jurkat HPD1 PDL1 IC50

Compound | IC50 [nM]
Cc1cccc(C[C@@H]2NC(=O)[C@H](CC(=O)O)NC(=O)[C@H](Cc3ccc(C(F)(F)F)cc3)NC(=O)[C@H](C(C)O)NC(=O)CSC[C@@H](C(=O)N[C@@H](CCN)C(=O)NCCCCCCCCCCC(=O)O)NC(=O)[C@H](C(C)O)NC(=O)[C@H](C(C)C)NC(=O)[C@H](CC3CCCCC3)NC(=O)[C@H](CCN)NC(=O)[C@@H](CC(C)C)NC(=O)[C@H](C)N(C)C(=O)[C@H](Cc3ccc(C(=O)O)cc3)NC(=O)[C@H](Cc3ccc(-c4ccccc4)cc3)NC(=O)[C@H](Cc3ccc(C(=O)O)cc3)NC2=O)c1 (stereo partly drawn) [Example 2571] ({CH2CO}-[Thr(3ξ)][Phe(4-CF3)]D[Phe(3-Me)][Phe(4-COOH)][Bip][Phe(4-COOH)][NMeA][dL][Dab][Cha]V[Thr(3ξ)]C[Dab][Aun]-OH; thioether N-14) | 108
CCC[C@@H]1NC(=O)[C@H](C(C)(C)O)NC(=O)[C@H](CC2CCCCC2)NC(=O)[C@H](Cc2cnc[nH]2)NC(=O)[C@@H](CC(C)C)NC(=O)[C@H](C)N(C)C(=O)[C@H](C(C)CC)NC(=O)[C@H](Cc2ccc(-c3ccccc3)cc2)NC(=O)[C@H](C(C)C)NC(=O)[C@H](Cc2c[nH]c3ccccc23)NC(=O)[C@H](CC(=O)O)NC(=O)[C@H](Cc2ccc(OCC(=O)O)cc2)NC(=O)[C@H](Cc2ccc(OCC(=O)O)cc2)NC(=O)CSC[C@@H](C(=O)N[C@@H](CCN)C(=O)NCCOCCOCC(=O)NCCCCCCCCCCC(=O)O)NC1=O (stereo partly drawn) [Example 2589] ({CH2CO}-Y(Carboxymethyl)Y(Carboxymethyl)DWV[Bip][Ile(3ξ)][NMeA][dL]H[Cha][Val(3-OH)][Nva]C[Dab][AEEA][Aun]-OH; thioether N-14) | 35.6
Cc1cccc(C[C@@H]2NC(=O)[C@H](CC(=O)O)NC(=O)[C@H](Cc3ccc(OCC(=O)O)cc3)NC(=O)[C@H](C)NC(=O)CSC[C@@H](C(=O)N[C@@H](CCN)C(=O)NCCCCCCCCCCCCC(=O)O)NC(=O)[C@H](Cc3cnc[nH]3)NC(=O)[C@H](C(C)(C)O)NC(=O)[C@H](CC3CCCCC3)NC(=O)[C@H](CCN)NC(=O)[C@@H](CC(C)C)NC(=O)[C@H](C)N(C)C(=O)[C@H](CCCNC(=N)N)NC(=O)[C@H](Cc3ccc(-c4ccccc4)cc3)NC(=O)[C@H](Cc3ccc(O)cc3)NC2=O)c1 [Example 2642] ({CH2CO}-AY(Carboxymethyl)D[Phe(3-Me)]Y[Bip]R[NMeA][dL][Dab][Cha][Val(3-OH)]HC[Dab]-{NH(CH2)12COOH}; thioether N-14) | 74.4
